Experimental data from the supplement of paper PMC10307832.

Legend:
Assay in all cases: relative viability (nuclei count vs DMSO), 5 days (fraction); higher = more cells survive
Crenolanib + Alpelisib = compound: CC1(COc2ccc3c(c2)ncn3-c2ccc3cccc(N4CCC(N)CC4)c3n2)COC1 [Crenolanib] + Cc1nc(NC(=O)N2CCC[C@H]2C(N)=O)sc1-c1ccnc(C(C)(C)C(F)(F)F)c1 [Alpelisib] (partner 2 µM)
Method in brief: (§1)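 Relative viability is defined as nuclei in treated wells over nuclei in vehicle wells. Duplicate plates were run and medians reported. Lung cancer cell lines in 1536-well plates were dosed by pin tool one day after seeding, with one drug or with a fixed anchor-drug dose plus five library-drug doses (not always all listed) in √10 steps, and nuclei were counted after 5 days.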

Crenolanib + Dasatinib = compound: CC1(COc2ccc3c(c2)ncn3-c2ccc3cccc(N4CCC(N)CC4)c3n2)COC1 [Crenolanib] + Cc1nc(Nc2ncc(C(=O)Nc3c(C)cccc3Cl)s2)cc(N2CCN(CCO)CC2)n1 [Dasatinib] (partner 0.075 µM)
Method in brief: as §1

Tivantinib + Foretinib = compound: O=C1NC(=O)[C@@H](c2cn3c4c(cccc24)CCC3)[C@@H]1c1c[nH]c2ccccc12 [Tivantinib] + COc1cc2c(Oc3ccc(NC(=O)C4(C(=O)Nc5ccc(F)cc5)CC4)cc3F)ccnc2cc1OCCCN1CCOCC1 [Foretinib] (partner 0.25 µM)
Method in brief: as §1

Tivantinib + Crizotinib = compound: O=C1NC(=O)[C@@H](c2cn3c4c(cccc24)CCC3)[C@@H]1c1c[nH]c2ccccc12 [Tivantinib] + C[C@@H](Oc1cc(-c2cnn(C3CCNCC3)c2)cnc1N)c1c(Cl)ccc(F)c1Cl [Crizotinib] (partner 1 µM)
Method in brief: as §1

SW 1573
relative viability (Crenolanib + Alpelisib; first compound 0.01 µM): 0.824
relative viability (Crenolanib + Alpelisib; first compound 0.03162 µM): 0.765
relative viability (Crenolanib + Alpelisib; first compound 0.1 µM): 0.706
relative viability (Crenolanib + Alpelisib; first compound 0.3162 µM): 0.954
relative viability (Crenolanib + Alpelisib; first compound 1 µM): 0.608
relative viability (Crenolanib + Dasatinib; first compound 0.01 µM): 0.539
relative viability (Crenolanib + Dasatinib; first compound 0.03162 µM): 0.48
relative viability (Crenolanib + Dasatinib; first compound 0.1 µM): 0.591
relative viability (Crenolanib + Dasatinib; first compound 0.3162 µM): 0.558
relative viability (Crenolanib + Dasatinib; first compound 1 µM): 0.553
relative viability (Tivantinib + Foretinib; first compound 0.01 µM): 1.04
relative viability (Tivantinib + Foretinib; first compound 0.03162 µM): 0.83
relative viability (Tivantinib + Foretinib; first compound 0.1 µM): 0.804
relative viability (Tivantinib + Foretinib; first compound 0.3162 µM): 0.863
relative viability (Tivantinib + Crizotinib; first compound 0.01 µM): 0.751
relative viability (Tivantinib + Crizotinib; first compound 0.03162 µM): 0.761
relative viability (Tivantinib + Crizotinib; first compound 0.1 µM): 0.902
relative viability (Tivantinib + Crizotinib; first compound 0.3162 µM): 0.496
